Entries after “also recorded” stand apart in the source; their conditions may differ. Counter-ions that a name gives are not always drawn.
Assays:
GST-VRK2A [1] = target: T1, GST-VRK2A (Homo sapiens, UniProt Q86Y07); experiment: In vitro kinase assay, GST-VRK2A autophosphorylation; type: biochemical; settings: for IC50: read-out: IC50 (µM) GST-VRK2A Auto-phosphorylation
T1 construct: a full-length protein of 508 aminoacids (known as VRK2 and VRK2A); made in house; host or cells: E. coli BL21

CHK2 = settings: Table S1, known target value; no reference given; read-out: Kinase target (IC50) CHK2; cited from earlier work
GST-VRK1 [2] = target: T2, GST-VRK1 (Homo sapiens, UniProt Q99986); experiment: In vitro kinase assay, GST-VRK1 phosphorylation of histone H3; type: biochemical; settings: 5 µM ATP; average of three experiments, ± standard deviation; No inhibition is lack of effect at 100 µM
T2 construct: made in house
T2 sequence (Q99986 1-396): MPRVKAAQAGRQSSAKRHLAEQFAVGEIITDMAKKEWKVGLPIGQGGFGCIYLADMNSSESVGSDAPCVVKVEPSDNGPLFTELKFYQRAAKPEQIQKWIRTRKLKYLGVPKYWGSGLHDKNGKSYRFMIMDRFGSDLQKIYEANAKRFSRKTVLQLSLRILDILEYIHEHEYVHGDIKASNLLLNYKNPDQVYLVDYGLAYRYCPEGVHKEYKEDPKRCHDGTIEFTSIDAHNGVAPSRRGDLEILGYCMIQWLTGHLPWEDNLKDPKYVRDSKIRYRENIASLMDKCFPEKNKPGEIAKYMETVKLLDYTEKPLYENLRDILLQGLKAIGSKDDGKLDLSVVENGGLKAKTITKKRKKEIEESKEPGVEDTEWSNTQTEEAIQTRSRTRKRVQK

GST-VRK2A [3] = target: T1, GST-VRK2A; experiment: In vitro kinase assay, GST-VRK2A phosphorylation of histone H3; type: biochemical
GST-VRK1 [4] = target: T2, GST-VRK1; experiment: In vitro kinase assay, GST-VRK1 autophosphorylation; type: biochemical; settings: 5 µM ATP, average of three experiments, ± standard deviation, No inhibition is lack of effect at 100 µM; for IC50: read-out: IC50 (µM) GST-VRK1 Auto- phosphorylation
VRK2A = target: T3, VRK2A (Homo sapiens, UniProt Q86Y07); experiment: In vitro kinase assay, VRK2A kinase activity (autophosphorylation and H3 phosphorylation); type: biochemical; settings: for IC50 / Effect on VRK2 (VRK2A) kinase activity at 100 µM inhibitor (in words): 5 µM ATP; for IC50: H3 phosphorylation or autophosphorylation, read-out: Concentration giving fifty percent inhibition of VRK2A activity; for Effect on VRK2 (VRK2A) kinase activity at 100 µM inhibitor (in words): inhibitor 100 µM, autophosphorylation and H3 phosphorylation
T3 construct: a full-length protein of 508 aminoacids (known as VRK2 and VRK2A); made in house; host or cells: E. coli BL21

S6K = settings: Table S1, known target value; no reference given; read-out: Kinase target (IC50) S6K; cited from earlier work
[5] = target: vaccinia virus B1R kinase (Vaccinia virus, UniProt P16913); type: biochemical; settings: p53 and histone H3 as substrates, ATP 5 µM
MSK1 = settings: Table S1, known target value; no reference given; read-out: Kinase target (IC50) MSK1; cited from earlier work
CK1 = settings: read-out: Concentration inhibiting CK1; cited from earlier work
human VRK1 = target: T4, human VRK1 (Homo sapiens, UniProt Q99986); experiment: In vitro kinase assay, VRK1 kinase activity (autophosphorylation and H3 phosphorylation); type: biochemical; settings: for Effect on VRK1 kinase activity at 100 µM inhibitor (in words): inhibitor 100 µM, 5 µM ATP, autophosphorylation and H3 phosphorylation
T4 construct: made in house
T4 sequence (Q99986 1-396): T2 sequence (Q99986 1-396)

DNA-PKcs = settings: Table S1, known target value; no reference given; read-out: Kinase target (IC50) DNA-PKcs; cited from earlier work
ATM = settings: Table S1, known target value; no reference given; read-out: Kinase target (IC50) ATM; cited from earlier work
DNA-PK = settings: Table S1, known target value; no reference given; read-out: Kinase target (IC50) DNA-PK; cited from earlier work
Mek1 = settings: Table S1, known target value; no reference given; read-out: Kinase target (IC50) Mek1; cited from earlier work
PKC isoforms = settings: read-out: Reported fifty percent inhibition of PKC isoforms; cited from earlier work
GSK-3β = settings: Table S1, known target value; no reference given; read-out: Kinase target (IC50) GSK-3β; cited from earlier work
[6] = 5 µM ATP, average of three experiments, ± standard deviation, No inhibition is lack of effect at 100 µM

NC(=O)Nc1cc(-c2cccc(F)c2)sc1C(=O)N[C@H]1CCCNC1 [AZD7762, 5-(3-Fluorophenyl)-3-ureidothiophene-N-[(S)-piperidin-3-yl]-2-carboxamide]
IC50 (GST-VRK2A [1]): 40 ± 1.07 µM
IC50 (CHK2): < 0.01 µM
IC50 (µM) GST-VRK1 H3 phosphorylation (GST-VRK1 [2]): No inhibition
IC50 (GST-VRK2A [3]): 24.4 ± 1.07 µM
IC50 (µM) GST-VRK1 Auto- phosphorylation (GST-VRK1 [4]): No inhibition
IC50 (VRK2A): 30 µM

COc1cc(OC)c(C=C2C(=O)Nc3ccccc32)c(OC)c1 [IC261]
IC50 (S6K): 6 µM
IC50 (GST-VRK2A [1]; [6]): 11.1 ± 1.1 µM
Sensitivity of vaccinia virus B1R kinase to inhibitor (in words) [5]: not
IC50 (MSK1): 6 µM
IC50 (CK1): 6 µM
IC50 (GST-VRK1 [2]): 55.9 ± 1.04 µM
IC50 (GST-VRK2A [3]; [6]): 14.7 ± 1.13 µM
IC50 (GST-VRK1 [4]): 121.4 ± 1.05 µM
IC50 (VRK2A): 10 µM

CC(=O)c1ccc(N2CCOCC2)cc1O [IC86621, 1-(2-Hydroxy-4-morpholin-4-yl-phenyl)ethanone]
IC50 (µM) GST-VRK2A Auto-phosphorylation (GST-VRK2A [1]; [6]): No inhibition
Effect on VRK1 kinase activity at 100 µM inhibitor (in words) (human VRK1): no noticeable effect
IC50 (DNA-PKcs): 0.1 µM
IC50 (µM) GST-VRK1 H3 phosphorylation (GST-VRK1 [2]): No inhibition
IC50 (µM) GST-VRK2A H3 phosphorylation (GST-VRK2A [3]; [6]): No inhibition
IC50 (µM) GST-VRK1 Auto- phosphorylation (GST-VRK1 [4]): No inhibition
Effect on VRK2 (VRK2A) kinase activity at 100 µM inhibitor (in words) (VRK2A): no noticeable effect

O=c1cc(-c2cccc3c2Sc2ccccc2S3)oc(N2CCOCC2)c1 [KU55933, 2-(4-Morpholinyl)-6-(1-thianthrenyl)-4H-pyran-4-one]
IC50 (µM) GST-VRK2A Auto-phosphorylation (GST-VRK2A [1]; [6]): No inhibition
Sensitivity of vaccinia virus B1R kinase to inhibitor (in words) [5]: sensitive
Effect on VRK1 kinase activity at 100 µM inhibitor (in words) (human VRK1): no noticeable effect
IC50 (µM) GST-VRK1 H3 phosphorylation (GST-VRK1 [2]): No inhibition
IC50 (µM) GST-VRK2A H3 phosphorylation (GST-VRK2A [3]; [6]): No inhibition
IC50 (µM) GST-VRK1 Auto- phosphorylation (GST-VRK1 [4]): No inhibition
Effect on VRK2 (VRK2A) kinase activity at 100 µM inhibitor (in words) (VRK2A): no noticeable effect

O=c1cc(N2CCOCC2)oc2c1ccc1ccccc12 [NU7026, 2-(Morpholin-4-yl)-benzo[h]chomen-4-one]
IC50 (µM) GST-VRK2A Auto-phosphorylation (GST-VRK2A [1]; [6]): No inhibition
Effect on VRK1 kinase activity at 100 µM inhibitor (in words) (human VRK1): no noticeable effect
IC50 (DNA-PK): 0.23 µM
IC50 (µM) GST-VRK1 H3 phosphorylation (GST-VRK1 [2]): No inhibition
IC50 (µM) GST-VRK2A H3 phosphorylation (GST-VRK2A [3]; [6]): No inhibition
IC50 (µM) GST-VRK1 Auto- phosphorylation (GST-VRK1 [4]): No inhibition
Effect on VRK2 (VRK2A) kinase activity at 100 µM inhibitor (in words) (VRK2A): no noticeable effect

COc1cccc(-c2cc(=O)c3ccccc3o2)c1N [PD98059, 2’-Amino-3’-methoxyflavone]
IC50 (µM) GST-VRK2A Auto-phosphorylation (GST-VRK2A [1]; [6]): No inhibition
Effect on VRK1 kinase activity at 100 µM inhibitor (in words) (human VRK1): None of them was able to induce a significant inhibition
IC50 (µM) GST-VRK1 H3 phosphorylation (GST-VRK1 [2]): No inhibition
IC50 (µM) GST-VRK2A H3 phosphorylation (GST-VRK2A [3]; [6]): No inhibition
IC50 (µM) GST-VRK1 Auto- phosphorylation (GST-VRK1 [4]): No inhibition
Effect on VRK2 (VRK2A) kinase activity at 100 µM inhibitor (in words) (VRK2A): None of them was able to induce a significant inhibition

Cn1cc(C2=C(c3cn(CCCSC(=N)N)c4ccccc34)C(=O)NC2=O)c2ccccc21 [RO 31–8220, 2-(1-[3-(Amidinothio)propyl]-1H-indol-3-yl)-3-methanosulfonate salt]
IC50 (GST-VRK2A [1]; [6]): 31.8 ± 1.15 µM
Sensitivity of vaccinia virus B1R kinase to inhibitor (in words) [5]: sensitive
IC50 (PKC isoforms): 0.005 to 0.027 µM
IC50 (GST-VRK1 [2]): 34.4 ± 1.05 µM
IC50 (GST-VRK2A [3]; [6]): 33.6 ± 1.04 µM
IC50 (GST-VRK1 [4]): 11.1 ± 1.16 µM

CC[C@H](CO)Nc1nc(NCc2ccccc2)c2ncn(C(C)C)c2n1 [Roscovitine, 2-(R)-(1-Ethyl-2-hydroxyethylamino)-6-benzylamino-9-isopropylpurine]
Effect on VRK1 kinase activity at 250 µM inhibitor (in words) (human VRK1; inhibitor 250 µM): some noticeable effect
IC50 (µM) GST-VRK1 H3 phosphorylation (GST-VRK1 [2]): No inhibition
IC50 (µM) GST-VRK1 Auto- phosphorylation (GST-VRK1 [4]): No inhibition

C[S+]([O-])c1ccc(-c2nc(-c3ccc(F)cc3)c(-c3ccncc3)[nH]2)cc1 (stereo not shown) [SB203580, 4-(4-Fluorophenyl)-2-(4-methylsulfinylphenyl)-5-(4-pyridyl)-1H-imidazole]
Effect on VRK1 kinase activity at 100 µM inhibitor (in words) (human VRK1): None of them was able to induce a significant inhibition
IC50 (µM) GST-VRK1 H3 phosphorylation (GST-VRK1 [2]): No inhibition
IC50 (µM) GST-VRK1 Auto- phosphorylation (GST-VRK1 [4]): No inhibition
Effect on VRK2 (VRK2A) kinase activity at 100 µM inhibitor (in words) (VRK2A): None of them was able to induce a significant inhibition

CN[C@@H]1C[C@H]2O[C@@](C)([C@@H]1OC)n1c3ccccc3c3c4c(c5c6ccccc6n2c5c31)C(=O)NC4 [Staurosporine, (9S,10R,11R,13R)-2,3,10,11,12,13-Hexahydro-10-methoxy-9-methyl-11-(methylamino)-9,13-epoxy-1H,9H-diindolo[1,2,3-gh:3',2',1'-lm]pyrrolo[3,4-j][1,7]benzodiazonin-1-one]
Sensitivity of vaccinia virus B1R kinase to inhibitor (in words) [5]: sensitive
Inhibition of VRK2A activity, concentration series (in words) (VRK2A; Fig. 3D, concentration not given): not inhibited

Cn1sc(=O)n(Cc2ccccc2)c1=O [TDZD-8, 4-benzil-2methyl-1,2,4-thiodiazolidine-3,5-dione]
IC50 (µM) GST-VRK2A Auto-phosphorylation (GST-VRK2A [1]; [6]): No inhibition
Effect on VRK1 kinase activity at 5 µM inhibitor (in words) (human VRK1; inhibitor 5 µM, autophosphorylation or H3 phosphorylation): no significant inhibition
Effect on VRK1 kinase activity at 7.5 µM inhibitor (in words) (human VRK1; inhibitor 7.5 µM, autophosphorylation or H3 phosphorylation): almost completely inhibited
Effect on VRK1 kinase activity at 100 µM inhibitor (in words) (human VRK1): more sensitive
IC50 (µM) GST-VRK1 H3 phosphorylation (GST-VRK1 [2]): Inhibition at 7.5 µM
IC50 (µM) GST-VRK2A H3 phosphorylation (GST-VRK2A [3]; [6]): No inhibition
IC50 (GSK-3β): 2 µM
IC50 (µM) GST-VRK1 Auto- phosphorylation (GST-VRK1 [4]): Inhibition at 7.5 µM
Effect on VRK2A kinase activity at 500 µM inhibitor (in words) (VRK2A; inhibitor 500 µM (not shown)): insensitive

O=c1nc(NCc2ccccc2)s[nH]1 [TDZD-20, 5-Benzylamino-3-oxo-2,3-dyhidro-1,2-4-thiadiazole]
IC50 (µM) GST-VRK2A Auto-phosphorylation (GST-VRK2A [1]; [6]): No inhibition
Effect on VRK1 kinase activity at 100 µM inhibitor (in words) (human VRK1): not able to inhibit
Effect on VRK1 kinase activity at concentrations similar to those of TDZD-8 (in words) (human VRK1; similar concentrations (5 to 7.5 µM), Fig. S2B): no effect
IC50 (µM) GST-VRK1 H3 phosphorylation (GST-VRK1 [2]): No inhibition
IC50 (µM) GST-VRK2A H3 phosphorylation (GST-VRK2A [3]; [6]): No inhibition
IC50 (GSK-3β): 6.5 µM
IC50 (µM) GST-VRK1 Auto- phosphorylation (GST-VRK1 [4]): No inhibition
Effect on VRK2 (VRK2A) kinase activity at 100 µM inhibitor (in words) (VRK2A): insensitive; also recorded: not able to inhibit

— paper PMC3150407, “Differential Inhibitor Sensitivity between Human Kinases VRK1 and VRK2” (PLoS ONE, 2011)
